In publication PMC8197275, “Novel Tdp1 Inhibitors Based on Adamantane Connected with Monoterpene Moieties via Heterocyclic Fragments” (Molecules, 2021):
Like-named read-outs stand apart in the source and are kept apart here.

Experiments:
HCT-116 cells = assay: Sensitizing of HCT-116 cells to topotecan by Tdp1 inhibitors; type: cell-based, human; conditions: for HCT116 CC50 of topotecan with Tdp1 inhibitor: human, 72 h
Description: (§1) The potential for sensitizing the cancer cell lines to topotecan using the Tdp1 inhibitors was investigated using the MTT assay. Neutralizing the enzymatic activity of Tdp1 by blocking access to its catalytic site using a small molecule should sensitize the cytotoxic potential of topotecan, since the complex of Top1 with DNA cannot be unraveled. […] Nontoxic concentrations of the adamantane derivatives (5 μM) were used for the HeLa cell line; the dose response for topotecan was measured and the corresponding CC50 values were derived, and the results are shown in Figure 4 for 20c and in Table 2 for all the derivatives.
(§2) For HeLa cells, increased cytotoxicity was seen when the adamantanes and topotecan were combined. […] The combination index (CI) for different concentrations of topotecan and 20c at 5 μM was in the range 0.49–0.82, and at 10 μM of 20c, it was 0.23–0.78. This indicates a synergistic effect of topotecan and 20c. The CI values were calculated with the CompuSyn version 1.0 software. For the HCT-116 cells, the synergistic effects of the compounds were different than for the HeLa cells. […] The CI plot at a different fraction affected (Fa) was determined for topotecan (5, 15, 150, 500 and 1500 nM) and 20g (1, 3, 10, 20 μM). The CI values for most of the combinations correspond to a synergistic effect (CI < 1, see Figure S3 in the Supplementary Materials).
(§3) The human cervical cancer HeLa cells were grown in Iscove’s modified Dulbecco’s medium (IMDM) with 40 μg/mL gentamicin, 50 IU/mL penicillin, 50 μg/mL streptomycin (MP Biomedicals), and 10% of fetal bovine serum (Biolot) in a 5% CO2 atmosphere. Human colon adenocarcinoma HCT-116, rectum adenocarcinoma SW837, and human embryo kidney HEK293A cell lines were cultured in DMEM medium (Invitrogen) supplemented with 10% fetal bovine serum (FBS) (Invitrogen), penicillin (100 units/mL), and streptomycin (100 μg/mL), at 37 °C, 5% CO2 in a humid atmosphere. After the formation of a 30–50% monolayer, the tested compounds were added to the medium. The volume of the added reagents was 1/100 of the total volume of the culture medium, and the amount of DMSO was 1% of the final volume. Control cells were grown in the presence of 1% DMSO. The cell culture was monitored for 3 days.
(§4) The medium was removed, and the dark blue crystals of formazan were dissolved in 100 μL of isopropanol. The absorbance at 570 nm (peak) and 620 nm (baseline) was determined using a microplate reader Multiscan FC (Thermo Fisher Scientific Corporation). All concentrations were performed in triplicate. The values are given as mean ± standard deviation (S.D.) values, and all measurements were repeated three times.

HeLa cells = assay: Sensitizing of HeLa cells to topotecan by Tdp1 inhibitors; type: cell-based, human; conditions: for HeLa CC50 of topotecan with Tdp1 inhibitor: human, 3 days, 5 µM
Description: as §1, §2, §3
(§5) The cytotoxicity of the compounds to HeLa and HEK293A cell lines was examined using the EZ4U Cell Proliferation and Cytotoxicity Assay (Biomedica, Austria), according to the manufacturer’s protocols.

[1] = Cytotoxicity, EZ4U Cell Proliferation and Cytotoxicity Assay, HeLa; type: cell-based; conditions: human, HeLa cells, cervical cancer HeLa
Description: (§6) The cytotoxicity of compounds was investigated using HeLa (cervical cancer), SW837 and HCT-116 (colon cancers) cell lines, and the results are shown in Table 1 and Figure S2 in the Supplementary Materials. […] In general, the HeLa cell line was less sensitive to the inhibitors than the HCT-116 and SW837 cells.
as §3, §5

[2] = Cytotoxicity, MTT test, SW837; type: cell-based; conditions: human, SW837 cells; colorectal SW837, 72 h MTT
Description: as §6, §3, §4

[3] = Cytotoxicity, MTT test, HCT-116; type: cell-based; conditions: human, HCT-116 cells; colorectal HCT-116, 72 h MTT
Description: as §6, §3, §4

Tdp1 [4] = molecular target: T1, Tdp1 (Homo sapiens, UniProt Q9NUW8); assay: Tdp1 cleavage activity, fluorophore quencher-coupled DNA-biosensor, real-time; type: biochemical; design: inferred from the pET 16B vector and Ni-chelating resin purification; made in house; conditions: recombinant Tdp1 1.5 nM, 50 nM biosensor; read-out: IC50 (Tdp1 activity inhibition at 50%)
Description: The recombinant Tdp1 was purified to homogeneity by chromatography on Ni-chelating resin and phosphocellulose P11 as described, using plasmid pET 16B-Tdp1, kindly provided by Dr. K.W. Caldecott (University of Sussex, United Kingdom). Tdp1 activity was detected as described in the work. Briefly, we measured the fluorescence intensity after quencher removal from a fluorophore quencher–coupled DNA oligonucleotide catalyzed by Tdp1. The reaction was carried out at different concentrations of inhibitors. The control samples contained 1% DMSO. The reaction mixtures contained Tdp1 buffer (50 mM Tris-HCl pH 8.0, 50 mM NaCl, and 7 mM β-mercaptoethanol), 50 nM biosensor, and an inhibitor being tested. The reaction was started by the addition of purified Tdp1 (1.5 nM). The biosensor (5′-[FAM] AAC GTC AGGGTC TTC C [BHQ]-3′) was synthesized in the Laboratory of Biomedical Chemistry at the Institute of Chemical Biology and Fundamental Medicine (Novosibirsk, Russia).
The reactions were incubated on a POLARstar OPTIMA fluorimeter (BMG LAB-TECH, GmbH) to measure fluorescence every 55 s (ex. 485 nm/em. 520 nm) during the linear phase (here, data are from minute 0 to minute 8). The values of IC50 were determined using a six-point concentration response curve in a minimum of three independent experiments, and were calculated using MARS Data Analysis 2.0 (BMG LABTECH).

Tdp1 [5] = molecular target: T1, Tdp1; design: inferred from the pET 16B vector and Ni-chelating resin purification; made in house; conditions: cited from earlier work

T1 sequence (Q9NUW8 whole entry): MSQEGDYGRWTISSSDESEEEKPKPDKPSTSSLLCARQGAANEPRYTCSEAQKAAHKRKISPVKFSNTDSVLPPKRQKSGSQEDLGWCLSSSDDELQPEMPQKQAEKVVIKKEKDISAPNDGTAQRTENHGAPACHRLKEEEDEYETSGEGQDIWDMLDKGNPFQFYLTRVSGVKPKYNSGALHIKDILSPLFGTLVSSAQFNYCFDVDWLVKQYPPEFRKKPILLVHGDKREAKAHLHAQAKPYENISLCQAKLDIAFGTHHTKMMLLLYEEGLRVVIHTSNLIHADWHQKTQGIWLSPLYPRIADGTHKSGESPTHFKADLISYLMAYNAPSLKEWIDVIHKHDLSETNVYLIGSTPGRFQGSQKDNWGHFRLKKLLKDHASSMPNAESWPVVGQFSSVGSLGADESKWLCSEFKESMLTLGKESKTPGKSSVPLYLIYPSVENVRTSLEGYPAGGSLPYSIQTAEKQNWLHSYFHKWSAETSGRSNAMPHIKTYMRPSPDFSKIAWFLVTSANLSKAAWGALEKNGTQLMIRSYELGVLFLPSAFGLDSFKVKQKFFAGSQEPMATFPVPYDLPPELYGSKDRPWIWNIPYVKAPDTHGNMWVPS

IC50 (Tdp1 [4]) [µM]	SMILES	HeLa CC50 of topotecan with Tdp1 inhibitor (HeLa cells) [µM]	CC50 at 3 days [1] [µM]	CC50 at 72 h [2] [µM]	CC50 at 72 h [3] [µM]	also measured
0.35 ± 0.05	CC(C)CCCC(C)CC(=O)Nc1nnc(C23CC4CC(CC(C4)C2)C3)s1 (stereo not drawn) [25a, N-(5-(Adamantan-1-yl)-1,3,4-thiadiazol-2-yl)-3,7-dimethyloctanamide]	4.9	> 100	> 100	> 100	HCT116 CC50 of topotecan with Tdp1 inhibitor (HCT-116 cells; 45 µM): 455.7 (45) nM
0.45 ± 0.09	CC1(C)[C@H]2CC=C(C(=O)Nc3nnc(C45CC6CC(CC(C6)C4)C5)s3)[C@@H]1C2 [25c, (1R,5S)-N-(5-(Adamantan-1-yl)-1,3,4-thiadiazol-2-yl)-6,6-dimethylbicyclo[3.1.1]hept-2-ene-2-carboxamide]	3.6	> 100	> 100	> 100	HCT116 CC50 of topotecan with Tdp1 inhibitor (HCT-116 cells; 25 µM): 486.0 (25) nM
> 15	CC1(C)[C@H]2CC=C(C(=O)NC34CC5CC(CC(C5)C3)C4)[C@@H]1C2 [26c, reference compound]	–	–	–	–	–
> 15	CC(C)CCCC(C)CCNC(=O)C12CC3CC(CC(C3)C1)C2 (stereo not drawn) [28a, reference compound]	–	–	–	–	–
> 15	CC1(C)[C@H]2CC=C(CCNC(=O)C34CC5CC(CC(C5)C3)C4)[C@@H]1C2 [28g, reference compound]	–	–	–	–	–

Further lines, the compound ahead of its results:

SMILES	IC50 (Tdp1 [4]) [µM]	HeLa CC50 of topotecan with Tdp1 inhibitor (HeLa cells) [µM]	CC50 at 3 days [1] [µM]	CC50 at 72 h [2] [µM]	CC50 at 72 h [3] [µM]	also measured
CC(C)CCCC(C)CCSc1n[nH]c(C23CC4CC(CC(C4)C2)C3)n1 (stereo not drawn) [20a, 5-(Adamantan-1-yl)-3-((3,7-dimethyloctyl)thio)-1H-1,2,4-triazole]	0.54 ± 0.09	4.5	85 ± 23	52 ± 6	27 ± 6	HCT116 CC50 of topotecan with Tdp1 inhibitor (HCT-116 cells; 20 µM): 650.0 (20) nM
CC(C)=CCC[C@H](C)CCSc1n[nH]c(C23CC4CC(CC(C4)C2)C3)n1 [20b, 5-(Adamantan-1-yl)-3-(((S)-3,7-dimethyloct-6-en-1-yl)thio)-1H-1,2,4-triazole]	1.5 ± 0.3	–	> 100	41 ± 4	> 100	HCT116 CC50 of topotecan with Tdp1 inhibitor (HCT-116 cells; 20 µM): 575.3 (20) nM
CC(C)=CCC/C(C)=C\CSc1n[nH]c(C23CC4CC(CC(C4)C2)C3)n1 [20d, 5-(Adamantan-1-yl)-3-(((Z)-3,7-dimethylocta-2,6-dien-1-yl)thio)-1H-1,2,4-triazole]	5.6 ± 0.6	5.4	31 ± 11	17 ± 5	20 ± 9	HCT116 CC50 of topotecan with Tdp1 inhibitor (HCT-116 cells; 15 µM): 689.0 (15) nM
C=C(C)[C@@H]1CC=C(CSc2n[nH]c(C34CC5CC(CC(C5)C3)C4)n2)CC1 [20e, 5-(Adamantan-1-yl)-3-((((S)-4-(prop-1-en-2-yl)cyclohex-1-en-1-yl)methyl)thio)-1H-1,2,4-triazole]	6.2 ± 2.2	–	24 ± 16	40 ± 4	15 ± 5	HCT116 CC50 of topotecan with Tdp1 inhibitor (HCT-116 cells; 15 µM): 392.0 (15) nM
CC1(C)[C@H]2CC=C(CSc3n[nH]c(C45CC6CC(CC(C6)C4)C5)n3)[C@@H]1C2 [20f, 5-(Adamantan-1-yl)-3-((((1R,5S)-6,6-dimethylbicyclo[3.1.1]hept-2-en-2-yl)methyl)thio)-1H-1,2,4-triazole]	7.5 ± 1.8	2.8	15 ± 2	46 ± 6	54 ± 5	HCT116 CC50 of topotecan with Tdp1 inhibitor (HCT-116 cells; 25 µM): 715.0 (25) nM
CC[C@@]1(O)C(=O)OCc2c1cc1n(c2=O)Cc2cc3c(CN(C)C)c(O)ccc3nc2-1 [Topotecan, topotecan, reference compound]	–	–	–	–	–	CC50 (HCT-116 cells; Homo sapiens, HCT-116, topotecan alone, read-out: HCT116 CC50 of topotecan): 0.715 µM; CC50 (HeLa cells; Homo sapiens, HeLa, topotecan alone): 6 µM
CC(C)=CCCC(C)CC1N2CC3(C)CN1CC(C)(C2)C3=O (stereo not drawn) [compound 3]	–	–	–	–	–	IC50 (Tdp1 [5]): ~15 µM
C[C@@H]1CC[C@@H]2[C@@H](C1)O[C@@H](c1ccc(NC(=O)c3cccc4ccccc34)s1)C[C@]2(C)O [compound 5]	–	–	–	–	–	IC50 (Tdp1 [5]): 2 µM
C[C@@H]1CC[C@@H]2[C@@H](C1)O[C@@H](c1ccc(NC(=O)C34CC5CC(CC(C5)C3)C4)s1)C[C@]2(C)O [compound 13]	–	–	–	–	–	IC50 (Tdp1 [5]): 1.2 µM
